Assay results: BindingDB's records for doi:10.1021/jm00020a029 (Merck Research Laboratories, 1995)
*1 amine or outer side, *2 acyl side, *3 side chain or, on linkers, in order; H or OH if unused. Where a SMILES comes first, the peptide text is derived from it. [ ]: non-standard residue; d: D form. Phe(3,4-Cl2) = N[C@@H](Cc1ccc(Cl)c(Cl)c1)C(=O)O; X1 = COc1c(I)cc(C[C@H](N[*:1])C(=O)[*:2])cc1I; Phe(4-F) = N[C@@H](Cc1ccc(F)cc1)C(=O)O; hArg = N=C(N)NCCCC[C@H](N)C(=O)O; Cha = N[C@@H](CC1CCCCC1)C(=O)O

How the values were obtained:
[1] = target: T1, Proteinase-activated receptor 1 (Homo sapiens, UniProt P25116); assay: Evaluated for the activation of human thrombin receptor measured by platelet aggregation
T1 sequence (P25116 whole entry): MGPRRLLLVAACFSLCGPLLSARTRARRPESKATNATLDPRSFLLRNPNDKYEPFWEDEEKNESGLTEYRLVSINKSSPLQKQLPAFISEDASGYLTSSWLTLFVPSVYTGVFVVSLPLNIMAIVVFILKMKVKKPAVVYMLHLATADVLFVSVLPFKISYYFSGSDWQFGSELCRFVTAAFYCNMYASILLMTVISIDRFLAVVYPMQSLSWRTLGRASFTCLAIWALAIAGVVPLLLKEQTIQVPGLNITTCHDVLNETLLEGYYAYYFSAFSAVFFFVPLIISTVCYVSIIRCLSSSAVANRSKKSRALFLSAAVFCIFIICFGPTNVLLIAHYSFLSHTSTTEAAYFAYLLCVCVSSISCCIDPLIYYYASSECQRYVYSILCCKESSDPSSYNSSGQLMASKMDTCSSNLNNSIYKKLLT

[2] = Evaluated for the activity of Radio-ligand Peptides upon the activation of human thrombin receptor measured by platelet aggregation
[3] = Evaluated for the activation of human thrombin receptor measured by platelet aggregation

Row | EC50 [1] | EC50 [2] | EC50 [3] | Compound
1 | 160 nM |  |  | C[C@H](N)C(=O)N[C@@H](Cc1ccc(F)cc1)C(=O)N[C@@H](CCCNC(=N)N)C(=O)N[C@@H](CC1CCCCC1)C(=O)N[C@@H](CCCCNC(=N)N)C(=O)N[C@@H](Cc1ccc(O)cc1)C(N)=O [(S)-2-((S)-2-{(S)-2-[(S)-2-((S)-2-Amino-propionylamino)-3-(4-fluoro-phenyl)-propionylamino]-5-guanidino-pentanoylamino}-3-cyclohexyl-propionylamino)-6-guanidino-hexanoic acid [1-carbamoyl-2-(4-hydroxy-phenyl)-ethyl]-amide] (H-A[Phe(4-F)]R[Cha][hArg]Y-NH2)
2 |  | 300 nM | 270 nM | CC(C)C[C@H](NC(=O)[C@H](Cc1ccc(Cl)c(Cl)c1)NC(=O)[C@H](C)N)C(=O)N[C@@H](CC1CCCCC1)C(=O)N[C@@H](CCCNC(=N)N)C(N)=O [(S)-2-[(S)-2-((S)-2-Amino-propionylamino)-3-(3,4-dichloro-phenyl)-propionylamino]-4-methyl-pentanoic acid [(S)-1-((S)-1-carbamoyl-4-guanidino-butylcarbamoyl)-2-cyclohexyl-ethyl]-amide] (H-A[Phe(3,4-Cl2)]L[Cha]R-NH2)
3 |  | 1500 nM | 10 nM | COc1c(I)cc(C[C@H](NC(=O)[C@H](Cc2ccc(Cl)c(Cl)c2)NC(=O)[C@H](C)N)C(=O)N[C@@H](CC2CCCCC2)C(=O)N[C@@H](CCCNC(=N)N)C(N)=O)cc1I [(S)-2-{(S)-2-[(S)-2-[(S)-2-((S)-2-Amino-propionylamino)-3-(3,4-dichloro-phenyl)-propionylamino]-3-(3,5-diiodo-4-methoxy-phenyl)-propionylamino]-3-cyclohexyl-propionylamino}-5-guanidino-pentanoic acid amide] (H-A[Phe(3,4-Cl2)][X1][Cha]R-NH2)
